Assay results taken from patent US11897851B2, “Heterocyclic GLP-1 agonists” (Gasherbrum Bio, Inc., priority 2021, dated 2024).

Target: T1, GLP-1 Receptor (Homo sapiens, UniProt P43220)
T1 construct: host or cells: HEK293/GLP1R/CRE-LUC (HEK293/CRE-Luc stably expressing the GLP-1 receptor)
Assay: GLP-1R agonist cAMP stimulation assay (HEK293/GLP1R/CRE-LUC cells, Cisbio cAMP dynamic 2 kit);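 further: compounds tested in half-log serial dilution, cAMP detected with cAMP-d2 and anti-cAMP cryptate antibody reagents after 1 h at room temperature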
Format: cell-based
Details: HEK293/CRE-Luc cell line stably expressing the GLP-1 Receptor; 1000 cells/well; 30 min at 37° C.; 0.5 mM IBMX, 0.1% BSA; read-out: GLP1R cAMP Stimulation DR: EC50

T1 sequence (P43220 24-463, species assumed): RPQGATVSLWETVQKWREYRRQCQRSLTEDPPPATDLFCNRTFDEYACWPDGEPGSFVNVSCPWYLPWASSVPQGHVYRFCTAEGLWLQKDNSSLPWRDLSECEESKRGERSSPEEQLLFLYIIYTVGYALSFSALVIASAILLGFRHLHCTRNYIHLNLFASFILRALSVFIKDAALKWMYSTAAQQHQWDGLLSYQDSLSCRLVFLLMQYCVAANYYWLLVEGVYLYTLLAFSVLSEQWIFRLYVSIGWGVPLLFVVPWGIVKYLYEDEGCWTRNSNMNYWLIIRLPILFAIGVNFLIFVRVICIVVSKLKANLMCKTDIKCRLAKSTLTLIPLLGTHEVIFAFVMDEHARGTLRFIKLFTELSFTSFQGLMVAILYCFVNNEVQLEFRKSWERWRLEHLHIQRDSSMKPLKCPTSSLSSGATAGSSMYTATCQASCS

`CC1(c2ccc(Cl)cc2F)Oc2cccc(C3CCN(Cc4ncc(/C=C/C(=O)O)n4CC4(C#N)CC4)CC3)c2O1` (centres unmarked) [Compound 192, (E)-3-(2-((4-(2-(4-chloro-2-fluorophenyl)-2-methylbenzo[d][1,3]dioxol-4-yl)piperidin-1-yl)methyl)-1-((1-cyanocyclopropyl)methyl)-1H-imidazol-5-yl)acrylic acid] and `COC1(Cn2c(/C=C/C(=O)O)cnc2CN2CCC(c3cccc4c3OC(C)(c3ccc(Cl)cc3F)O4)CC2)CC1` (centres unmarked) [Compound 196, (E)-3-(2-((4-(2-(4-chloro-2-fluorophenyl)-2-methylbenzo[d][1,3]dioxol-4-yl)piperidin-1-yl)methyl)-1-((1-methoxycyclopropyl)methyl)-1H-imidazol-5-yl)acrylic acid] are within 1.5-fold of each other in EC50: 0.073 nM for the first, 0.058 nM for the second.

`CC#CCn1c(/C=C/C(=O)O)cnc1CN1CCC(c2cccc3c2OC(C)(c2ccc(Cl)cc2F)O3)CC1` (centres unmarked) [Compound 193, (E)-3-(1-(but-2-yn-1-yl)-2-((4-(2-(4-chloro-2-fluorophenyl)-2-methylbenzo[d][1,3]dioxol-4-yl)piperidin-1-yl)methyl)-1H-imidazol-5-yl)acrylic acid] and `COCCCn1c(/C=C/C(=O)O)cnc1CN1CCC(c2cccc3c2OC(C)(c2ccc(Cl)cc2F)O3)CC1` (centres unmarked) [Compound 195, (E)-3-(2-((4-(2-(4-chloro-2-fluorophenyl)-2-methylbenzo[d][1,3]dioxol-4-yl)piperidin-1-yl)methyl)-1-(3-methoxypropyl)-1H-imidazol-5-yl)acrylic acid] are within 1.5-fold of each other in EC50: 0.11 nM for the first, 0.091 nM for the second.

Going from `CC1(c2ccc(Cl)cc2F)Oc2cccc(C3CCN(Cc4ncc(/C=C/C(=O)O)n4CC4COC4)CC3)c2O1` (centres unmarked) [Compound 194, (E)-3-(2-((4-(2-(4-chloro-2-fluorophenyl)-2-methylbenzo[d][1,3]dioxol-4-yl)piperidin-1-yl)methyl)-1-(oxetan-3-ylmethyl)-1H-imidazol-5-yl)acrylic acid] to `CC1(c2ccc(Cl)cc2F)Oc2cccc(C3CCN(Cc4ncc(/C=C/C(=O)O)n4CCOC4CC4)CC3)c2O1` (centres unmarked) [Compound 201, (E)-3-(2-((4-(2-(4-chloro-2-fluorophenyl)-2-methylbenzo[d][1,3]dioxol-4-yl)piperidin-1-yl)methyl)-1-(2-cyclopropoxyethyl)-1H-imidazol-5-yl)acrylic acid], the EC50 falls from 0.064 nM to 0.034 nM (1.9-fold).

Going from `CCOCCn1c(/C=C/C(=O)O)cnc1CN1CCC(c2cccc3c2OC(C)(c2ccc(Cl)cc2F)O3)CC1` (centres unmarked) [Compound 197, (E)-3-(2-((4-(2-(4-chloro-2-fluorophenyl)-2-methylbenzo[d][1,3]dioxol-4-yl)piperidin-1-yl)methyl)-1-(2-ethoxyethyl)-1H-imidazol-5-yl)acrylic acid] to `C[C@]1(c2ccc(Cl)cc2F)Oc2cccc(C3CCN(Cc4ncc(/C=C/C(=O)O)n4CCOCC(F)(F)F)CC3)c2O1` [Compound 198a, (S,E)-3-(2-((4-(2-(4-chloro-2-fluorophenyl)-2-methylbenzo[d][1,3]dioxol-4-yl)piperidin-1-yl)methyl)-1-(2-(2,2,2-trifluoroethoxy)ethyl)-1H-imidazol-5-yl)acrylic acid], the EC50 falls from 0.019 nM to 0.0095 nM (2-fold). The second is the more potent here.

Going from `Cc1ncoc1Cn1c(/C=C/C(=O)O)cnc1CN1CCC(c2cccc3c2OC[C@@H](c2ccc(Cl)cc2)O3)CC1` [Compound 199a, (R,E)-3-(2-((4-(2-(4-chlorophenyl)-2,3-dihydrobenzo [b][1,4]dioxin-5-yl)piperidin-1-yl)methyl)-1-((4-methyloxazol-5-yl)methyl)-1H-imidazol-5-yl)acrylic acid] to `O=C(O)/C=C/c1cnc(CN2CCC(c3cccc4c3OC[C@@H](c3ccc(Cl)cc3)O4)CC2)n1Cc1cnco1` [Compound 205a, (R,E)-3-(2-((4-(2-(4-chlorophenyl)-2,3-dihydrobenzo[b][1,4]dioxin-5-yl)piperidin-1-yl)methyl)-1-(oxazol-5-ylmethyl)-1H-imidazol-5-yl)acrylic acid], the EC50 falls from 1.6 nM to 0.26 nM (6.2-fold).

`CC1(c2ccc(Cl)cc2F)Oc2cccc(C3CCN(Cc4ncc(/C=C/C(=O)O)n4CCN4CCOC4=O)CC3)c2O1` (centres unmarked) [Compound 200, (E)-3-(2-((4-(2-(4-chloro-2-fluorophenyl)-2-methylbenzo[d][1,3]dioxol-4-yl)piperidin-1-yl)methyl)-1-(2-(2-oxooxazolidin-3-yl)ethyl)-1H-imidazol-5-yl)acrylic acid] and `Cc1ncc(Cn2c(/C=C/C(=O)O)cnc2CN2CCC(c3cccc4c3OC(C)(c3ccc(Cl)cc3F)O4)CC2)o1` (centres unmarked) [Compound 202, (E)-3-(2-((4-(2-(4-chloro-2-fluorophenyl)-2-methylbenzo[d][1,3]dioxol-4-yl)piperidin-1-yl)methyl)-1-((2-methyloxazol-5-yl)methyl)-1H-imidazol-5-yl)acrylic acid] are within 1.5-fold of each other in EC50: 0.22 nM for the first, 0.26 nM for the second.

First: CCc1nocc1Cn1c(/C=C/C(=O)O)cnc1CN1CCC(c2cccc3c2OC(C)(c2ccc(Cl)cc2F)O3)CC1 (centres unmarked) [Compound 203, (E)-3-(2-((4-(2-(4-chloro-2-fluorophenyl)-2-methylbenzo[d][1,3]dioxol-4-yl)piperidin-1-yl)methyl)-1-((3-ethylisoxazol-4-yl)methyl)-1H-imidazol-5-yl)acrylic acid]
Second: Cc1nocc1Cn1c(/C=C/C(=O)O)cnc1CN1CCC(c2cccc3c2OC(C)(c2ccc(Cl)cc2F)O3)CC1 (centres unmarked) [Compound 204, (E)-3-(2-((4-(2-(4-chloro-2-fluorophenyl)-2-methylbenzo[d][1,3]dioxol-4-yl)piperidin-1-yl)methyl)-1-((3-methylisoxazol-4-yl)methyl)-1H-imidazol-5-yl)acrylic acid]
The EC50 of the first is 4.8-fold higher: 0.058 nM for the first, 0.012 nM for the second. The second is the more potent here.

Going from `Cn1cncc1Cn1c(/C=C/C(=O)O)cnc1CN1CCC(c2cccc3c2OC[C@@H](c2ccc(Cl)cc2)O3)CC1` [Compound 206a, (R,E)-3-(2-((4-(2-(4-chlorophenyl)-2,3-dihydrobenzo[b][1,4]dioxin-5-yl)piperidin-1-yl)methyl)-1-((1-methyl-1H-imidazol-5-yl)methyl)-1H-imidazol-5-yl)acrylic acid] to `CCn1cncc1Cn1c(/C=C/C(=O)O)cnc1CN1CCC(c2cccc3c2OC[C@@H](c2ccc(Cl)cc2)O3)CC1` [Compound 207a, (R,E)-3-(2-((4-(2-(4-chlorophenyl)-2,3-dihydrobenzo [b][1,4]dioxin-5-yl)piperidin-1-yl)methyl)-1-((1-ethyl-1H-imidazol-5-yl)methyl)-1H-imidazol-5-yl)acrylic acid], the EC50 falls from 0.19 nM to 0.016 nM (12-fold).

Going from `CCn1cncc1Cn1c(/C=C(\C)C(=O)O)cnc1CN1CCC(c2cccc3c2OC[C@@H](c2ccc(Cl)cc2)O3)CC1` [Compound 208a, (R,E)-3-(2-((4-(2-(4-chlorophenyl)-2,3-dihydrobenzo [b][1,4]dioxin-5-yl)piperidin-1-yl)methyl)-1-((1-ethyl-1H-imidazol-5-yl)methyl)-1H-imidazol-5-yl)-2-methylacrylic acid] to `O=C(O)/C=C/c1cnc(CN2CCC(c3cccc4c3OC[C@@H](c3ccc(Cl)cc3)O4)CC2)n1Cc1cccnc1` [Compound 209a, (R,E)-3-(2-((4-(2-(4-chlorophenyl)-2,3-dihydrobenzo[b][1,4]dioxin-5-yl)piperidin-1-yl)methyl)-1-(pyridin-3-ylmethyl)-1H-imidazol-5-yl)acrylic acid], the EC50 rises from 0.011 nM to 0.54 nM (49-fold). The first is the more potent here.

Going from `O=C(O)/C=C/c1cnc(CN2CCC(c3cccc4c3OC[C@@H](c3ccc(Cl)cc3)O4)CC2)n1Cc1ccccc1` [Compound 210a, (R,E)-3-(1-benzyl-2-((4-(2-(4-chlorophenyl)-2,3-dihydrobenzo[b][1,4]dioxin-5-yl)piperidin-1-yl)methyl)-1H-imidazol-5-yl)acrylic acid] to `CCn1cncc1Cn1c(/C=C/C(=O)O)cnc1CN1CCC(c2cccc(OCc3ccc(Cl)cc3F)n2)CC1` [Compound 214, (E)-3-(2-((4-(6-((4-chloro-2-fluorobenzyl)oxy)pyridin-2-yl)piperidin-1-yl)methyl)-1-((1-ethyl-1H-imidazol-5-yl)methyl)-1H-imidazol-5-yl)acrylic acid], the EC50 falls from 0.43 nM to 0.0032 nM (130-fold).

First: O=C(O)/C=C/c1cnc(CN2CCC(c3cccc(OCc4ccc(Cl)cc4F)n3)CC2)n1CC1CCC1 [Compound 211, (E)-3-(2-((4-(6-((4-chloro-2-fluorobenzyl)oxy)pyridin-2-yl)piperidin-1-yl)methyl)-1-(cyclobutylmethyl)-1H-imidazol-5-yl)acrylic acid]
Second: O=C(O)/C=C/c1cnc(CN2CCC(c3cccc(OCc4ccc(Cl)cc4F)n3)CC2)n1CC1CCCO1 (centres unmarked) [Compound 213, (E)-3-(2-((4-(6-((4-chloro-2-fluorobenzyl)oxy)pyridin-2-yl)piperidin-1-yl)methyl)-1-((tetrahydrofuran-2-yl)methyl)-1H-imidazol-5-yl)acrylic acid]
The EC50 of the first is 7.8-fold lower: 0.54 nM for the first, 4.2 nM for the second.

First: CS(=O)(=O)CCn1c(/C=C/C(=O)O)cnc1CN1CCC(c2cccc(OCc3ccc(Cl)cc3F)n2)CC1 [Compound 212, (E)-3-(2-((4-(6-((4-chloro-2-fluorobenzyl)oxy)pyridin-2-yl)piperidin-1-yl)methyl)-1-(2-(methylsulfonyl)ethyl)-1H-imidazol-5-yl)acrylic acid]
Second: O=C(O)/C(F)=C/c1cnc(CN2CCC(c3cccc(OCc4ccc(Cl)cc4F)n3)CC2)n1C[C@@H]1CCO1 [Compound 215a, (S,Z)-3-(2-((4-(6-((4-chloro-2-fluorobenzyl)oxy)pyridin-2-yl)piperidin-1-yl)methyl)-1-(oxetan-2-ylmethyl)-1H-imidazol-5-yl)-2-fluoroacrylic acid]
The EC50 of the first is 8.6-fold lower: 6.4 nM for the first, 55 nM for the second. The first is the more potent here.

First: COCC/C(=C\c1cnc(CN2CCC(c3cccc(OCc4ccc(Cl)cc4F)n3)CC2)n1C[C@@H]1CCO1)C(=O)O [Compound 216a, (S,E)-2-((2-((4-(6-((4-chloro-2-fluorobenzyl)oxy)pyridin-2-yl)piperidin-1-yl)methyl)-1-(oxetan-2-ylmethyl)-1H-imidazol-5-yl)methylene)-4-methoxybutanoic acid]
Second: C/C(=C\c1cnc(CN2CCC(c3cccc(OCc4ccc(Cl)cc4F)n3)CC2)n1C[C@@H]1CCO1)C(=O)O [Compound 218a, (S,E)-3-(2-((4-(6-((4-chloro-2-fluorobenzyl)oxy)pyridin-2-yl)piperidin-1-yl)methyl)-1-(oxetan-2-ylmethyl)-1H-imidazol-5-yl)-2-methylacrylic acid]
The EC50 of the first is 3.1-fold higher: 4.4 nM for the first, 1.4 nM for the second. The second is the more potent here.
